The values that follow come from PMC4834588 (British Journal of Clinical Pharmacology, 2016).

As a reminder, the chromatographic logP is a lipophilicity value derived from retention on a column.

The nature of data set [1]: Log P by HPLC retention on C18 column. An excerpt: The method for the generation of Log P values by high performance liquid chromatography (HPLC) was adapted from that described by Zhao et al. 22. Briefly, Log P correlates with the retention time of a compound by a solid phase C18 column. […] By using compounds with known Log P values, a standard curve can be determined and the Log P of a compound of interest obtained by interpolation. A Waters HPLC system, linked to an Agilent fluorescence detector, was used along with a Luna 5 μ C18 50 × 2.0 mm HPLC column preceded by a guard column (Phenomenex, Macclesfield, UK). […] The sample holder for the HPLC was set at 25 °C in order to prevent freezing of the DMSO during the run. The mobile phase consisted of deionized water and acetonitrile with a constant gradient of 40–60%, respectively.
Prior to each run the column was equilibrated to the running conditions for 10 minutes, with the flow rate set to 0.5 ml min^−1. A 20‐μl aliquot of each sample was injected into the column and its retention time measured relative to that of the sodium nitrate peak. Peaks were analysed using Empower software (Waters, Wilmslow, UK).

On the set-up of data set [2]: method as in PMID 15143082. The following applies: cited from earlier work.
Details of data set [3]: method as in http://www.drugbank.ca/drugs/DB00970. Particulars: PBPK compound file input; ref http://www.drugbank.ca/drugs/DB00970; cited from earlier work.
The target in the next data set is ABCB1 (MDR1) (Homo sapiens, UniProt P08183). Particulars: basal to apical, 0.1-100 μM Act D, 1 h, MDCKII-MDR1 minus MDCKII-WT.
A short description of data set [4]: Blood:plasma partitioning in whole blood from a healthy donor. Format: in vitro ADME. The following applies: human. On the procedure:
All experiments were performed in triplicate. An aliquot of 180 μl whole blood from a healthy donor was added to 20 μL of each Act D solution (final concentrations 0.4, 2 and 10 μg ml^−1) in Eppendorf tubes, followed by gentle rotation for 1 min before transfer to an incubator (Infors HT Multitron Standard, Infors AG, Basel) at 37 °C for 1 h and 40 μl of plasma was transferred to a new Eppendorf and mixed with 40 μl of fresh blood.
For the blood samples, 40 μl of blood was transferred to a new Eppendorf and mixed with 40 μl blank plasma. All samples were then mixed with 160 μl of the extraction solution and frozen at −80 °C for 1 h. Samples were then centrifuged at 2000 g and 4 °C for 1 h and 100 μl of supernatant from each sample was transferred to HPLC vials and stored at −20 °C overnight. LC–MS analysis was performed as described above for the analysis of transporter kinetic samples. The blood‐to‐plasma ratio was calculated from the following equation (where Kb/p is the whole blood‐to‐plasma partition coefficient, Ke/p is the red blood cell‐to‐plasma partition and H is the haematocrit): (1) Blood‐to‐plasmaKb/p=Ke/p×H+1−H

Data set [5] in a line: PBPK modelling and simulation (Simcyp version 14 release 1). Particulars: PBPK compound file input; determined from chemical structure. Further details: species or system human. On the procedure: Modelling and simulation were performed using Simcyp version 14 release 1 (Simcyp Ltd, a Certara company, Sheffield, UK). The compound file for Act D was compiled using data generated in the methods described above and with additional inputs from web databases and literature sources as shown in Table 2. The Simcyp software provides a framework for assessing the PK of a drug by defining certain characteristics within a compound file. Using this compound file, pharmacokinetic data can then be simulated in individuals of a virtual population of interest, allowing for the impact of inter‐individual differences to be assessed 17, 18.
For the simulation of clinical trial data, information was taken from previous work by Hill et al., who studied 117 patients administered Act D intravenously 8. The population was split into three age categories: 1–<6 (n = 67), 6–<10 (n = 11) and 10–20 years (n = 39). These age bins were further subdivided based on the dose of Act D received (Table 1). […]
The Simcyp simulations output the mean and the 5th and 95th percentile for the concentration−time profile as well as the calculated mean, median and geometric mean of the simulated population. […] In addition, the mean fold‐prediction of AUC against observed data was determined; a two‐fold under‐ or over‐prediction was considered a reasonable prediction and within 1.5‐fold a good prediction. […]

The conditions of data set [6]: cited from earlier work.
For data set [7] the following is noted: cited from earlier work. The source holds these as a separate data set.

Structures are written as SMILES. Read-outs that look alike come from different tables or passages of the source. Marks after values point to notes of the source that are not given here. Numbered stars: 1 amine (or outer) side, 2 acyl side, 3 side chain; on linkers, the order of the positions; unused ones are H or OH. Bridge positions count the residues as written; N and C are the ends. Square brackets hold non-standard residues; d marks the D form. Peptide text beside a SMILES is read from it. I, II: the chains in the order shown. Actinocin(9to1) = Cc1c2oc3c(C)ccc(C(=O)[*:1])c3nc-2c(C(=O)[*:2])c(N)c1=O; NMeV = CN[C@H](C(=O)O)C(C)C; Sar = CNCC(=O)O

Chain of ABCB1 (MDR1) (P08183 whole entry): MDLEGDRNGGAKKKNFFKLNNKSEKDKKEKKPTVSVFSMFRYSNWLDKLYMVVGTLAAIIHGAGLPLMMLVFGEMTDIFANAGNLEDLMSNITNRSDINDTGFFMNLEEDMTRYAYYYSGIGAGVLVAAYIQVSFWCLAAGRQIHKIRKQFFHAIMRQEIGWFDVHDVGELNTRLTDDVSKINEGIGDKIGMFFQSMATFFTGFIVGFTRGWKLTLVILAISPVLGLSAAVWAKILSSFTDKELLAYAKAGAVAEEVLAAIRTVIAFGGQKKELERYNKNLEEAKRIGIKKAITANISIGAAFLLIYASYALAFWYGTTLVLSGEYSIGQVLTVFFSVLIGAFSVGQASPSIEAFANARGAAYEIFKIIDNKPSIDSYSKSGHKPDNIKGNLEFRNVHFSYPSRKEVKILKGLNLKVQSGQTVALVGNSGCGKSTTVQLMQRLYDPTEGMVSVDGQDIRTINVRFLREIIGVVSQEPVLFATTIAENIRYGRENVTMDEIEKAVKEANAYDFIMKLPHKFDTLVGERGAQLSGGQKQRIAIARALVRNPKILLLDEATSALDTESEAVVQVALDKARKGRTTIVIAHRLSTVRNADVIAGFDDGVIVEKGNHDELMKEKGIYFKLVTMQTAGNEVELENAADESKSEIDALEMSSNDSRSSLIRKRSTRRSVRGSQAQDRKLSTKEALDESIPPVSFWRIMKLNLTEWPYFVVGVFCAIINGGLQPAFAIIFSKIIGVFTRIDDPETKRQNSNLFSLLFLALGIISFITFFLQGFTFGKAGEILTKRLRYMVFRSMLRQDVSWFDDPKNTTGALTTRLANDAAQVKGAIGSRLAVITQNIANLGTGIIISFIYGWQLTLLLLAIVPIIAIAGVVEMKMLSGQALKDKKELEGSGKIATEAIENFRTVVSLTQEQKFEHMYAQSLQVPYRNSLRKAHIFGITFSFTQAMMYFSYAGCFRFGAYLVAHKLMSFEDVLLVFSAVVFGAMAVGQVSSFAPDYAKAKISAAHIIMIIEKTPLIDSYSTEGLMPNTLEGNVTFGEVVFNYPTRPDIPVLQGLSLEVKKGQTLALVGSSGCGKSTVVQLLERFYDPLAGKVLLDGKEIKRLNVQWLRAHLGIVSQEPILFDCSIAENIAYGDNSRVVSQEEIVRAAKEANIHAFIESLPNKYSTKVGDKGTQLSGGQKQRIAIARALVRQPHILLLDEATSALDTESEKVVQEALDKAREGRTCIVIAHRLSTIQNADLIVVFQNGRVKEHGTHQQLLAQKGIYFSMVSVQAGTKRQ
Method for ABCB1 (MDR1): Polarized Madin‐Darby canine kidney (MDCKII) cell line wild‐type and cells transfected with ABCB1 (MDR1) were obtained from Dr. A.H. Schinkel (Amsterdam, the Netherlands).
For drug transport experiments, 12‐mm Corning Transwell polycarbonate membrane cell culture inserts with 0.4‐μm pores were used (Sigma Aldrich, UK). Cells (passage 8–12) were seeded at 1.4 × 10^4 cells ml^−1 in growth medium and grown on filter for 5 days before the experiment was performed, with medium being changed every 24 hours. […] Growth medium was aspirated from both the apical and basal compartments, and the cells were washed twice with pre‐warmed phosphate‐buffered saline adjusted to pH 7.4. […] Lucifer yellow (60 μM) was added as a paracellular control to test for the formation of a fully confluent monolayer. A limit of 2% Lucifer yellow movement was set as the cutoff with the results for any wells exceeding that threshold being rejected.
The rate of efflux (μM min^−1/10^6 cells) due to MDR1 was determined by subtracting the rate of flux seen across the MDCKII‐WT cells from the flux across the MDCKII‐MDR1 cells.

In turn, `C[C@@H]1C[C@H]2[C@@H]3CCC4=CC(=O)C=C[C@]4(C)[C@@]3(F)[C@@H](O)C[C@]2(C)[C@@]1(O)C(=O)CO` [Dexamethasone] came in with a chromatographic logP in data set [1] (reversed-phase C18 HPLC column (Luna 5 µ C18 50 × 2.0 mm)) of 1.8.
Turning to `Cc1c2oc3c(C)ccc(C(=O)N[C@@H]4C(=O)N[C@H](C(C)C)C(=O)N5CCC[C@H]5C(=O)N(C)CC(=O)N(C)[C@@H](C(C)C)C(=O)O[C@@H]4C)c3nc-2c(C(=O)N[C@@H]2C(=O)N[C@H](C(C)C)C(=O)N3CCC[C@H]3C(=O)N(C)CC(=O)N(C)[C@@H](C(C)C)C(=O)O[C@@H]2C)c(N)c1=O` [Act D, Actinomycin D] (I: T[dV]P[Sar][NMeV] / II: T[dV]P[Sar][NMeV]; ester I:1-I:C, II:1-II:C; linker I:N-II:N via Actinocin(9to1)), in data set [2] (patients over three years of age), the “Likelihood of developing SOS” value is on record as 4%. Also, the “Chance of developing SOS” value in data set [2] (patients under three years of age) is listed as 15%. The Fraction unbound in data set [3] is 0.95. Further, the “Maximum rate of flux (J max)” value at ABCB1 (MDR1) was determined as 1142 μM min^−1/10^6 cells. In addition, the “Michaelis–Menten constant (K m)” value at ABCB1 (MDR1) is 20 µM. Moreover, the “Experimental Log P” value in data set [1] is given as 4.77. The molecule further came in with a chromatographic logP in data set [1] of 4.47. Besides, the blood plasma ratio at 1 h in data set [4] (37 °C, 1 h, 95% confidence interval 0.03, read-out: Mean blood-to-plasma ratio) is 0.62; in data set [4] (whole blood spiked with 0.2 to 10 μg ml^−1, read-out: Blood-to-plasma ratios (range observed)), 0.59 to 0.65. Besides, the Compound type entry in data set [5] is “Neutral”. Further, the “CL Renal” value in data set [6] (PBPK input, CV of 60% used, ref Tattersall et al. 5) is given as 1.8 (l h^−1) ^*. In addition, the “Administered dose eliminated in the urine and faeces” value in data set [6] (after nine days) is given as “approximately 35%”. Besides, the “Mean observed AUC ± SD (AUC0-26h)” value is 82 ± 18 ng·h/mL in data set [7] (age 1–<6 years, dose 0.60 mg m^−2 IV); 63 ± 8 ng·h/mL in data set [7] (age 1–<6 years, dose 0.76 mg m^−2 IV); 71 ± 33 ng·h/mL in data set [7] (age 1–<6 years, dose 1.01 mg m^−2 IV); 82 ± 16 ng·h/mL in data set [7] (age 1–<6 years, dose 1.12 mg m^−2 IV); 111 ± 16 ng·h/mL in data set [7] (age 1–<6 years, dose 1.48 mg m^−2 IV); 128 ± 51 ng·h/mL in data set [7] (age 1–<6 years, dose 1.55 mg m^−2 IV). Also, the “Mean observed AUC ± SD (AUC0-26h)” value was 80 ± 28 ng·h/mL in data set [7] (age 6–<10 years, dose 0.77 mg m^−2 IV); 130 ± 12 ng·h/mL in data set [7] (age 6–<10 years, dose 1.50 mg m^−2 IV); 45 ± 8 ng·h/mL in data set [7] (age 10–20 years, dose 0.74 mg m^−2 IV); 50 ± 12 ng·h/mL in data set [7] (age 10–20 years, dose 1.04 mg m^−2 IV); 120 ± 44 ng·h/mL in data set [7] (age 10–20 years, dose 1.48 mg m^−2 IV). Further, the “Mean AUC0-26h observed” value in data set [7] (observed in patients (abstract)) is 93 ng·h/mL.
